Patent publication US11813305B2, “Endoplasmic reticulum stress as a predictive tool in cancer therapy and a combination therapy for the treatment of cancer” (IMMUNE SYSTEM KEY LTD., priority 2016, dated 2023)
Square brackets hold non-standard residues; d marks the D form. Peptide text beside a SMILES is read from it.

Tests used:
[1] = Safety and tolerability (adverse events, DLT, MTD), phase I study; format: in vivo, human
From the text: The present clinical study is a formal open label phase I dose escalation study. The primary objective was to determine the maximum tolerated dose (MTD) and safety profile of dTCApFs. Assessments included drug exposure, adverse events (AEs; graded according to the Common Terminology Criteria for Adverse Events (CTCAE), and characterization of dose-limiting toxicities (DLTs). Other objectives included assessment of serum levels of angiogenic factors after dTCApFs administration, pharmacokinetics (PK) and pharmacodynamics (PD) analyses, as well as assessment of receptor staining and tumor response. […]
Subjects with evaluable or measurable disease are assessed according to the response evaluation criteria in solid tumors (RECIST) version 1.1 every 2 cycles, where a cycle is defined as 4 weeks of treatment with three administrations per week. Tumor lesion measurements and changes from baseline are summarized by cycle and dose cohort.

[2] = test system: healthy human peripheral immune cells; format: cell-based; conditions: data not shown
From the text: Therefore, without wishing to be bound by theory, dTCApFs appears to selectively affect cancer cells.

## CC(C)C[C@@H](NC(=O)[C@H](NC(=O)[C@@H](CO)NC(=O)[C@H]1CCCN1C(=O)[C@@H](CC(C)C)NC(=O)[C@@H](Cc1ccccc1)NC(=O)[C@@H](Cc1ccccc1)NC(=O)[C@H](NC(=O)[C@@H](Cc1c[nH]c2ccccc12)NC(=O)[C@H](N)Cc1c[nH]c2ccccc12)[C@H](C)O)[C@H](C)O)C(=O)N[C@H](Cc1c[nH]c2ccccc12)C(=O)N[C@H](CCC(=O)O)C(=O)N[C@H](CCCNC(=N)N)C(=O)N[C@H](CCCCN)C(=O)O [dTCApFs, Trp Trp Thr Phe Phe Leu Pro Ser Thr Leu Trp Glu Arg Lys] (H-[dW][dW][dT][dF][dF][dL][dP][dS][dT][dL][dW][dE][dR][dK]-OH; N-terminus and C-terminus assumed)
[1]; 24 mg/m^2, n = 3
  Adverse event Grade 2: Pain, leg: 0
  Adverse event Grade 2: Pain, upper back: 0
  Adverse event Grade 2: Pruritus: 0
  Adverse event Grade 2: Urinary tract infection: 0
  Adverse event Grade 2: Urticaria: 0
  Adverse event Grade 3: Bilirubin increase: 0
  Adverse event Grade 3: Bowel obstruction: 0
  Adverse event Grade 3: Diarrhea: 0
  Adverse event Grade 3: GI hemorrhage: 0
  Adverse event Grade 3: Hypertension: 1
  Adverse event Grade 3: Increased INR: 0
  Adverse event Grade 4: Vomiting: 0
[1]; 48 mg/m^2, n = 3
  Adverse event Grade 1: Abdominal pain: 0
  Adverse event Grade 1: Anemia: 0
  Adverse event Grade 1: Bowel obstruction: 0
  Adverse event Grade 1: Dehydration: 0
  Adverse event Grade 1: Diarrhea: 0
  Adverse event Grade 1: Fatigue: 1
  Adverse event Grade 1: GI hemorrhage: 0
  Adverse event Grade 1: Hypertension: 0
  Adverse event Grade 1: Increased INR: 1
  Adverse event Grade 1: Neuropathy: 0
  Adverse event Grade 1: Vomiting: 0
  Adverse event Grade 2: ALT increase: 0
  Adverse event Grade 2: AST increase: 0
  Adverse event Grade 2: Bilirubin increase: 1
  Adverse event Grade 2: Cough: 0
  Adverse event Grade 2: Liver dysfunction: 0
  Adverse event Grade 2: Pain, leg: 0
  Adverse event Grade 2: Pain, upper back: 0
  Adverse event Grade 2: Pruritus: 0
  Adverse event Grade 2: Urinary tract infection: 0
  Adverse event Grade 2: Urticaria: 0
  Adverse event Grade 3: Bilirubin increase: 1
  Adverse event Grade 3: Bowel obstruction: 0
  Adverse event Grade 3: Diarrhea: 0
  Adverse event Grade 3: GI hemorrhage: 0
  Adverse event Grade 3: Hypertension: 0
  Adverse event Grade 3: Increased INR: 1
  Adverse event Grade 4: Vomiting: 0
[1]; 96 mg/m^2, n = 5
  Adverse event Grade 1: Abdominal pain: 0
  Adverse event Grade 1: Anemia: 0
  Adverse event Grade 1: Bowel obstruction: 0
  Adverse event Grade 1: Dehydration: 1
  Adverse event Grade 1: Diarrhea: 2
  Adverse event Grade 1: Fatigue: 0
  Adverse event Grade 1: GI hemorrhage: 0
  Adverse event Grade 1: Hypertension: 1
  Adverse event Grade 1: Increased INR: 0
  Adverse event Grade 1: Neuropathy: 0
  Adverse event Grade 1: Vomiting: 1
  Adverse event Grade 2: ALT increase: 1
  Adverse event Grade 2: AST increase: 1
  Adverse event Grade 2: Bilirubin increase: 1
  Adverse event Grade 2: Cough: 0
  Adverse event Grade 2: Liver dysfunction: 1
  Adverse event Grade 2: Pain, leg: 0
  Adverse event Grade 2: Pain, upper back: 1
  Adverse event Grade 2: Pruritus: 1
  Adverse event Grade 2: Urinary tract infection: 0
  Adverse event Grade 2: Urticaria: 2
  Adverse event Grade 3: Bilirubin increase: 1
  Adverse event Grade 3: Bowel obstruction: 0
  Adverse event Grade 3: Diarrhea: 1
  Adverse event Grade 3: GI hemorrhage: 0
  Adverse event Grade 3: Hypertension: 2
  Adverse event Grade 3: Increased INR: 0
  Adverse event Grade 4: Vomiting: 1
[1]; AEs of Table 4
  relation of adverse events (AEs) to study drug: None were related to study drug
[1]; all dose groups
  grade 4 AE vomiting, number of patients: 1
[1]; any patient up to cohort 5 (6-96 mg/m^2)
  dose-limiting toxicities (DLTs): No dose-limiting toxicities (DLTs) were observed
[1]; doses of 6, 12, 24, 48, and 96 mg/m^2 i.v., 3 times/week
  MTD: not reached
[1]; overall, 17 patients
  tolerability of treatment: well-tolerated with no cumulative toxicity
[2]
  cell death: only minor cell death occurred
